Counter-ions that a name gives are not always drawn.

T1 sequence (P18177 1-543): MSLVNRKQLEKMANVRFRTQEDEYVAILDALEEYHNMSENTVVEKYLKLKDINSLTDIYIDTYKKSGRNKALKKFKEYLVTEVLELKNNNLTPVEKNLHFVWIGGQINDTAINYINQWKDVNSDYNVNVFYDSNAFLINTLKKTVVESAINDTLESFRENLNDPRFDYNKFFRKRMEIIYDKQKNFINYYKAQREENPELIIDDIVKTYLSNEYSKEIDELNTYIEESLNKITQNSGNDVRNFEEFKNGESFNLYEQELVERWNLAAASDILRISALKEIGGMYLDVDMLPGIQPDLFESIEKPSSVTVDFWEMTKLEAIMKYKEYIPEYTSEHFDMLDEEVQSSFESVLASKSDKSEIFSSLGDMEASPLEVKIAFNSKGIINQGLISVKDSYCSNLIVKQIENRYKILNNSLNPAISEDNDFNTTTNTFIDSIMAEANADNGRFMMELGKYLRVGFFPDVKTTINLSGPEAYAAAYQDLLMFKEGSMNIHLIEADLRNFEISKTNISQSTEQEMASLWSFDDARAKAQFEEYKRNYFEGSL

This assay concerns the target T1, recombinant glucosyltransferase domain of C. difficile Toxin B/TcdB (Clostridioides difficile, UniProt P18177).
T1 construct: 6-His (C); purchased R&D Systems 6246-GT
In words: biochemical.
For the molecule `CNC(=O)c1cccc(-c2cc(CN3C(=O)c4ccc(Cl)cc4NC(=O)[C@H]3Cc3ccccn3)ccc2C(=O)O)c1` [Example 8p, (R)-5-((8-chloro-2,5-dioxo-3-(pyridin-2-ylmethyl)-2,3-dihydro-1H-benzo[e][1,4]diazepin-4(5H)-yl)methyl)-3′-(methylcarbamoyl)-[1,1′-biphenyl]-2-carboxylic acid], the IC50 lay in the range of 100 to 999 nM. Take `O=C(O)c1ccc(CN2C(=O)c3ccc(Cl)cc3NC(=O)[C@H]2Cc2ccccn2)cc1NC(=O)C1CCOCC1` [Example 22m]: the IC50 lay in the range of 100 to 999 nM.

Take `O=C1Nc2cc(Cl)ccc2C(=O)N(Cc2ccc(C(=O)N3CCc4cccnc43)c(Cl)c2)[C@@H]1Cc1ccccn1` [Example 4cd, (R)-8-chloro-4-(3-chloro-4-(2,3-dihydro-1H-pyrrolo[2,3-b]pyridine-1-carbonyl)benzyl)-3-(pyridin-2-ylmethyl)-3,4-dihydro-1H-benzo[e][1,4]diazepine-2,5-dione]: the IC50 is under 100 nM. The value for `Cc1ccc(NC(=O)c2ccc(CN3C(=O)c4ccc(Cl)cc4NC(=O)[C@H]3CCN3CCCCC3)cc2)nc1` [Example 10b, (R)-4-((8-chloro-2,5-dioxo-3-(2-(piperidin-1-yl)ethyl)-2,3-dihydro-1H-benzo[e][1,4]diazepin-4(5H)-yl)methyl)-N-(5-methylpyridin-2-yl)benzamide] was 10000 to 35000 nM; that for `N#Cc1ccc2c(c1)NC(=O)[C@@H](Cc1cccnc1)N(Cc1ccc(C(=O)Nc3ccccn3)cc1)C2=O` [Example 14a, (R)-4-((8-Cyano-2,5-dioxo-3-(pyridin-3-ylmethyl)-2,3-dihydro-1H-benzo[e][1,4]diazepin-4(5H)-yl)methyl)-N-(pyridin-2-yl)benzamide Hydrochloride] was under 100 nM; that for `O=C(NS(=O)(=O)c1ccc(Cl)cc1)c1ccc(CN2C(=O)c3ccc(Cl)cc3NC(=O)[C@H]2Cc2cccnc2)cc1` [Example 15c, (R)-4-((8-chloro-2,5-dioxo-3-(pyridin-3-ylmethyl)-2,3-dihydro-1H-benzo[e][1,4]diazepin-4(5H)-yl)methyl)-N-((4-chlorophenyl)sulfonyl)benzamide] was 1000 to 10000 nM. `O=C(Nc1ccccn1)c1ccc(CN2C(=O)c3ccc(Cl)cc3NC(=O)[C@H]2Cc2ccccn2)cc1Cl` [Example 4cj, (R)-2-chloro-4-((8-chloro-2,5-dioxo-3-(pyridin-2-ylmethyl)-2,3-dihydro-1H-benzo[e][1,4]diazepin-4(5H)-yl)methyl)-N-(pyridin-2-yl)benzamide]: the IC50 was under 100 nM. As to `C[C@H]1C(=O)Nc2cc(Cl)ccc2C(=O)N1Cc1ccc(C(=O)O)cc1` [Example 3b], the IC50 is 10000 to 35000 nM.

As for `Cn1cnc(C(=O)[C@H]2CC[C@H](CN3C(=O)c4ccc(Cl)cc4NC(=O)[C@H]3Cc3ccccn3)CC2)c1` [Example 33d], the IC50 was in the range of 100 to 999 nM. For the molecule `O=C1Nc2cc(Cl)ccc2C(=O)N(Cc2ccc(C(=NO)c3ccccn3)cc2)[C@@H]1Cc1ccccn1` (mixture of isomers) [Example 52a, (R)-8-Chloro-4-(4-((hydroxyimino)(pyridin-2-yl)methyl)benzyl)-3-(pyridin-2-ylmethyl)-3,4-dihydro-1H-benzo[e][1,4]diazepine-2,5-dione], the IC50 was in the range of 100 to 999 nM. On to `CN(C(=O)c1ccc(CN2C(=O)c3ccc(Cl)cc3NC(=O)[C@H]2Cc2cccnc2)cc1)c1ccccn1` [Example 4m, (R)-4-((8-chloro-2,5-dioxo-3-(pyridin-3-ylmethyl)-2,3-dihydro-1H-benzo[e][1,4]diazepin-4(5H)-yl)methyl)-N-methyl-N-(pyridin-2-yl)benzamide], for which the IC50 is 100 to 999 nM. On to `Cc1cnc(NC(=O)c2ccc(CN3C(=O)c4ccc(Cl)cc4NC(=O)[C@H]3Cc3ccccn3)cc2)cn1` [Example 5t, (R)-4-((8-chloro-2,5-dioxo-3-(pyridin-2-ylmethyl)-2,3-dihydro-1H-benzo[e][1,4]diazepin-4(5H)-yl)methyl)-N-(5-methylpyrazin-2-yl)benzamide], for which the IC50 is under 100 nM. For `O=C(Nc1ccc(CN2C(=O)c3ccc(Cl)cc3NC(=O)[C@H]2Cc2ccccn2)cc1)c1ccccn1` [Example 26b], the IC50 was under 100 nM. On to `Cn1ccnc1C(=O)[C@H]1CC[C@H](CN2C(=O)c3ccc(Cl)cc3NC(=O)[C@H]2Cc2ccccn2)CC1` [Example 33c], for which the IC50 was 1000 to 10000 nM. In the case of `O=C1Nc2cc(Cl)ccc2C(=O)N(C[C@H]2CC[C@H](C(=O)N3CCc4cccnc43)CC2)[C@@H]1Cc1ccccn1` [Example 4cg, (R)-8-chloro-4-(((1r,4R)-4-(2,3-dihydro-1H-pyrrolo[2,3-b]pyridine-1-carbonyl)cyclohexyl)methyl)-3-(pyridin-2-ylmethyl)-3,4-dihydro-1H-benzo[e][1,4]diazepine-2,5-dione], the IC50 is under 100 nM.

As to `COc1ccc(NC(=O)c2ccc(CN3C(=O)c4ccc(Cl)cc4NC(=O)[C@H]3C)cc2)nc1` [Example 4ba, (R)-4-((8-chloro-3-methyl-2,5-dioxo-2,3-dihydro-1H-benzo[e][1,4]diazepin-4(5H)-yl)methyl)-N-(5-methoxypyridin-2-yl)benzamide], the IC50 was in the range of 100 to 999 nM.

On to `O=C1Nc2cc(Cl)ccc2C(=O)N(Cc2ccc3c(c2)CN(c2ccccn2)C3=O)[C@@H]1Cc1ccccn1` [Example 49d], for which the half-inhibitory concentration (IC50) was 100 to 999 nM.

On to `O=C(Nc1cc(CN2C(=O)c3ccc(Cl)cc3NC(=O)[C@H]2Cc2ccccn2)ccc1C(=O)O)c1cccnc1` [Example 22g], for which the IC50 lay within 1000 to 10000 nM. The value for `Cc1cnc(NC(=O)c2ccc(CN3C(=O)c4ccc(Cl)cc4NC(=O)[C@H]3Cc3ccccn3)cc2Cl)s1` [Example 4cc, (R)-2-chloro-4-((8-chloro-2,5-dioxo-3-(pyridin-2-ylmethyl)-2,3-dihydro-1H-benzo[e][1,4]diazepin-4(5H)-yl)methyl)-N-(5-methylthiazol-2-yl)benzamide] was under 100 nM; that for `Cc1cccnc1C(=O)c1ccc(CN2C(=O)c3ccc(Cl)cc3NC(=O)[C@H]2Cc2ccccn2)cc1F` [Example 11i, (R)-8-chloro-4-(3-fluoro-4-(3-methylpicolinoyl)benzyl)-3-(pyridin-2-ylmethyl)-3,4-dihydro-1H-benzo[e][1,4]diazepine-2,5-dione] was 1000 to 10000 nM. In the case of `CC(=O)NC(=O)c1ccc(CN2C(=O)c3ccc(Cl)cc3NC(=O)[C@H]2Cc2ccccn2)cc1` [Example 12a, (R)—N-Acetyl-4-((8-chloro-2,5-dioxo-3-(pyridin-2-ylmethyl)-2,3-dihydro-1H-benzo[e][1,4]diazepin-4(5H)-yl)methyl)benzamide] it was under 100 nM. The value for `Cc1cccc(C[C@@H]2C(=O)Nc3cc(Cl)ccc3C(=O)N2Cc2ccc(C(=O)Nc3ccccn3)cc2)c1` [Example 4aj, (R)-4-((8-chloro-3-(3-methylbenzyl)-2,5-dioxo-2,3-dihydro-1H-benzo[e][1,4]diazepin-4(5H)-yl)methyl)-N-(pyridin-2-yl)benzamide] was 100 to 999 nM; that for `O=C(O)c1ccc(CN2C(=O)c3ccc(Cl)cc3NC(=O)[C@H]2Cc2ccccn2)cc1-c1ccccc1` [Example 8e, (R)-5-((8-chloro-2,5-dioxo-3-(pyridin-2-ylmethyl)-2,3-dihydro-1H-benzo[e][1,4]diazepin-4(5H)-yl)methyl)-[1,1′-biphenyl]-2-carboxylic acid] was 100 to 999 nM.

What is called IC50 is the concentration at which inhibition is half-maximal.

Values taken from US10669242B2 (priority 2016, dated 2020).
